# In PMC6801514, “Structural and Functional Characterization of Three Novel Fungal Amylases with Enhanced Stability and pH Tolerance” (International Journal of Molecular Sciences, 2019):
# Biological target: T1, CfAM (Cordyceps farinosa, UniProt A0A5S8WFA8)
# T1 construct: A, B and C domains (native enzyme lacks CBM20); secreted from Aspergillus oryzae MT3568, mature about 48 kDa, no tag told; two monomers in the asymmetric unit
# T1 sequence (A0A5S8WFA8 19-460): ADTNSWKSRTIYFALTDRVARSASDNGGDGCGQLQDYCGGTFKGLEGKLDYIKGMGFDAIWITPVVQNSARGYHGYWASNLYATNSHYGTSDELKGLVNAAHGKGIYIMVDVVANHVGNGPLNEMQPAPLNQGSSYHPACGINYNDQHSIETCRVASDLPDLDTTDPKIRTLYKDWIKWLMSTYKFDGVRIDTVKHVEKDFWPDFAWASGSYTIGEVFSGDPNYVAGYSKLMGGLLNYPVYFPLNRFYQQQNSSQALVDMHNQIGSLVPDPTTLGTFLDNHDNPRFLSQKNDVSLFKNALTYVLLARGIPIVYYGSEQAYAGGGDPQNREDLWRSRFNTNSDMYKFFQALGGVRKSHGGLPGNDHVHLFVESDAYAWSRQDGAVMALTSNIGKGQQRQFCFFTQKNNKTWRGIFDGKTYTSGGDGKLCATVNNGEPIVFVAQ
# Assay: X-ray crystallography, […] Å
# Type: binding
# Details: co-crystallised with 40 mM acarbose, 12% PEG 3350, 0.2 M NaNO3, CAPS pH 11.0; active-site cleft, subsites -4 to +3; ligand formed from acarbose in crystallo crystal (acarbose added, no maltose additio)
smiles,measurement,value
OC[C@H]1O[C@H](O[C@H]2[C@H](O)[C@@H](O)C(O)O[C@@H]2CO)[C@H](O)[C@@H](O)[C@@H]1O (stereo partly shown) [maltose],"X-ray crystallography, 1.35 Å",a secondary binding site in domain C was identified and modelled as maltose
